The target in experiment [1] is T1, NLRP3 inflammasome (Homo sapiens, UniProt Q96P20).
T1 construct: IL-1beta HTRF
The experiment in a line: IL-1β TR-FRET assay (THP-1 cells differentiated to macrophages with IFN-γ, LPS primed, ATP activated; HTRF). Conditions: THP-1 macrophages, 50 ng/mL LPS priming, compound 30 min, 20 mM ATP 2 hours. The experiment is classed as cell-based. In a few lines:
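THP-1 cells differentiated with 25 ng/mL IFN-γ for 24 h, primed with 50 ng/mL LPS in serum-free medium for 24 h, then treated with compounds for 30 min before 20 mM ATP activation for 2 h at 37 °C. Secreted IL-1β quantified by HTRF; IC50 from logistic fit of % inhibition.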

Experiment [2] has as its system NF-κB pathway. The experiment can be described thus: TNF-α assay (THP-1 cells differentiated to macrophages with IFN-γ, NF-κB pathway activated with LPS; ELISA). The experiment is classed as cell-based, Human. Conditions: compound 30 min, 50 ng/mL LPS 3 hours. In short, it runs like this:
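THP-1 cells differentiated with 25 ng/mL IFN-γ for 24 h, then 30 min with compounds in serum-free medium. NF-κB activated with 50 ng/mL LPS, 3 h at 37 °C. Supernatant TNF-α by ELISA; IC50 from four-parameter logistic fit of % inhibition.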

The mark [3] stands for this setting: Homo sapiens, THP-1, THP-1 macrophages.

T1 sequence (Q96P20 whole entry): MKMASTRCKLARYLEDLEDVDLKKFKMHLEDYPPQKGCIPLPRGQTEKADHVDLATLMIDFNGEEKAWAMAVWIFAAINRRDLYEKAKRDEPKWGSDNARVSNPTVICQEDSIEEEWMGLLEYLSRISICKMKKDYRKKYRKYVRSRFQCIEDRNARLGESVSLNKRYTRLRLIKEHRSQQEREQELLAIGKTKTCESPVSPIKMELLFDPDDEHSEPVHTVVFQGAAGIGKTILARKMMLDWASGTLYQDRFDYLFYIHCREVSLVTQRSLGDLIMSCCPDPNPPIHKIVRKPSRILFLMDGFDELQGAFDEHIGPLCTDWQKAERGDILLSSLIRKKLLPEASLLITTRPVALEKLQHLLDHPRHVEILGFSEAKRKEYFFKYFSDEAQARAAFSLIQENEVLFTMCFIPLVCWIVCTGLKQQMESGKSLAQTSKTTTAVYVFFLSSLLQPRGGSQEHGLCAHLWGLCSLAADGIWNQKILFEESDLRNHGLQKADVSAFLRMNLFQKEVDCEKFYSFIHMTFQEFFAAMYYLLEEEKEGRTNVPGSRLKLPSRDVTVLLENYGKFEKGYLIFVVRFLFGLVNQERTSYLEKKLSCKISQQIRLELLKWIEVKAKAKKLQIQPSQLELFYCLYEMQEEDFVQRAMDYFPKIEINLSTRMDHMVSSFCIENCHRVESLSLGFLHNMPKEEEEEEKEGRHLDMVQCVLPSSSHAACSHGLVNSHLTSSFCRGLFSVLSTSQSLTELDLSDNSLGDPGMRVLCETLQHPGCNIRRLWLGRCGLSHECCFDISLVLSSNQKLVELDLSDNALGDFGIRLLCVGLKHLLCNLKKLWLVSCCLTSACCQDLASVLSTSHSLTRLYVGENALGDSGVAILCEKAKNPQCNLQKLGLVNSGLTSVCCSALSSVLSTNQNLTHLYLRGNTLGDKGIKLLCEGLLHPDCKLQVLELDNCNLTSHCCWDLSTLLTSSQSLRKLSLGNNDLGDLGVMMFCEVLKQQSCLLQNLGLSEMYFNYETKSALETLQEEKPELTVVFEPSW

As a reminder, the IC50 is the concentration at which inhibition is half-maximal. Low readings indicate higher potency, high ones lower potency. With `CCc1cc(C)c(-n2cc3sc(N[C@@H]4C[C@@H](F)CN(C)C4)nc3n2)c(O)c1` [Example 60, 5-ethyl-2-(5-{[(3R,5R)-5-fluoro-1-methylpiperidin-3-yl]amino}-2H-pyrazolo[3,4-d][1,3]thiazol-2-yl)-3-methylphenol], the IC50 in experiment [1] is 61 nM; in experiment [2] (setting [3]), > 30000 nM.
`COCCN(C)c1nc2nn(-c3c(C)cc(C)cc3O)cc2s1` [Example 61, 2-{5-[(2-methoxyethyl)(methyl)amino]-2H-pyrazolo[3,4-d][1,3]thiazol-2-yl}-3,5-dimethylphenol]: the figures for the IC50 in experiment [1] and in experiment [2] (setting [3]) were 2000 nM and > 10000 nM, respectively.
Consider `Cc1cc(C)c(-n2cc3sc(N[C@H]4CNC[C@H](F)C4)nc3n2)c(O)c1` [Example 62, 2-(5-{[(3R,5R)-5-fluoropiperidin-3-yl]amino}-2H-pyrazolo[3,4-d][1,3]thiazol-2-yl)-3,5-dimethylphenol], for which the 50% inhibitory concentration (IC50) in experiment [1] is 120 nM; in experiment [2] (setting [3]), > 10000 nM.
Take `Cc1cnc(-n2cc3sc(N[C@@H]4CCCN(C)C4)nc3n2)c(O)c1` [Example 63, 5-methyl-2-(5-{[(3R)-1-methylpiperidin-3-yl]amino}-2H-pyrazolo[3,4-d][1,3]thiazol-2-yl)pyridin-3-ol]: the concentration for half-maximal inhibition (IC50) in experiment [1] is 3400 nM; in experiment [2] (setting [3]), > 10000 nM.
Consider `Cc1cc(O)c(-n2cc3sc(NC[C@@H](C)O)nc3n2)c(C2CC2)c1` [Example 64, 3-cyclopropyl-2-(5-{[(2R)-2-hydroxypropyl]amino}-2H-pyrazolo[3,4-d][1,3]thiazol-2-yl)-5-methylphenol], for which the 50% inhibitory concentration (IC50) is 78 nM in experiment [1] and > 10000 nM in experiment [2] (setting [3]).
As for `Cc1cc(O)c(-n2cc3sc(N[C@@H]4C[C@@H](F)CN(C)C4)nc3n2)c(C2CC2)c1` [Example 65, 3-cyclopropyl-2-(5-{[(3R,5R)-5-fluoro-1-methylpiperidin-3-yl]amino}-2H-pyrazolo[3,4-d][1,3]thiazol-2-yl)-5-methylphenol], the figures for the IC50 in experiment [1] and in experiment [2] (setting [3]) were 8.3 nM and > 30000 nM, respectively.
Consider `Cc1cc(C)c(-n2cc3sc(NCC(C)(C)O)nc3n2)c(O)c1` [Example 66, 2-{5-[(2-hydroxy-2-methylpropyl)amino]-2H-pyrazolo[3,4-d][1,3]thiazol-2-yl}-3,5-dimethylphenol], for which the results for the 50% inhibitory concentration (IC50) in experiment [1] and in experiment [2] (setting [3]) were 250 nM and > 30000 nM, respectively.
On the same counts, the results for `Cc1cc(C)c(-n2cc3sc(N[C@@H]4CCN(CC(F)F)C4)nc3n2)c(O)c1` [Example 67, 2-(5-{[1-(2,2-difluoroethyl)pyrrolidin-3-yl]amino}-2H-pyrazolo[3,4-d][1,3]thiazol-2-yl)-3,5-dimethylphenol] are 950 nM and > 30000 nM.
Turning to `Cc1cc(C)c(-n2cc3sc(NC4CCN(C(=O)CC(F)F)C4)nc3n2)c(O)c1` (stereo not shown) [Example 68, 3,3-difluoro-1-(3-{[2-(2-hydroxy-4,6-dimethylphenyl)-2H-pyrazolo[3,4-d][1,3]thiazol-5-yl]amino}pyrrolidin-1-yl)propan-1-one], the figures for the IC50 in experiment [1] and in experiment [2] (setting [3]) were 220 nM and > 10000 nM, respectively.
As for `Cc1cc(C)c(-n2cc3sc(NC4CCN(C(=O)OCC(Cl)(Cl)Cl)C4)nc3n2)c(O)c1` (stereo not shown) [Example 69, 2,2,2-trichloroethyl 3-{[2-(2-hydroxy-4,6-dimethylphenyl)-2H-pyrazolo[3,4-d][1,3]thiazol-5-yl]amino}pyrrolidine-1-carboxylate], the IC50 in experiment [1] was 250 nM; in experiment [2] (setting [3]), > 10000 nM.
As for `Cc1cc(C)c(-n2nc3nc(N[C@@H]4C[C@@H](F)CN(C)C4)sc3c2C)c(O)c1` [Example 70, 2-(5-{[(3R,5R)-5-fluoro-1-methylpiperidin-3-yl]amino}-3-methyl-2H-pyrazolo[3,4-d][1,3]thiazol-2-yl)-3,5-dimethylphenol], the IC50 was 59 nM in experiment [1] and > 30000 nM in experiment [2] (setting [3]).
`CN1C[C@H](F)C[C@@H](Nc2nc3nn(-c4c(O)cc(Cl)cc4C(F)F)cc3s2)C1` [Example 75, 5-chloro-3-(difluoromethyl)-2-(5-{[(3R,5R)-5-fluoro-1-methylpiperidin-3-yl]amino}-2H-pyrazolo [3,4-d][1,3]thiazol-2-yl)phenol]: the concentration for half-maximal inhibition (IC50) was 16 nM in experiment [1] and > 30000 nM in experiment [2] (setting [3]).
With `CO[C@@H]1C[C@@H](Nc2nc3nn(-c4c(C)cc(C)cc4O)cc3s2)CN(C)C1` [Example 76], the concentration for half-maximal inhibition (IC50) in experiment [1] is 1600 nM; in experiment [2] (setting [3]) it was > 30000 nM.
Consider `Cc1cc(C)c(-n2cc3sc(NC4CCN(C(=O)OCc5ccccc5)C4)nc3n2)c(O)c1` (stereo not shown) [Example 77, benzyl 3-{[2-(2-hydroxy-4,6-dimethylphenyl)-2H-pyrazolo[3,4-d][1,3]thiazol-5-yl]amino}pyrrolidine-1-carboxylate], for which the figures for the IC50 in experiment [1] and in experiment [2] (setting [3]) were 470 nM and > 10000 nM, respectively.
As to `CCN1C[C@H](F)C[C@@H](Nc2nc3nn(-c4c(O)cc(Cl)cc4C(F)F)cc3s2)C1` [Example 78, 5-chloro-3-(difluoromethyl)-2-(5-{[(3R,5R)-1-ethyl-5-fluoropiperidin-3-yl]amino}-2H-pyrazolo[3,4-d][1,3]thiazol-2-yl)phenol], the IC50 in experiment [1] was 4.3 nM; in experiment [2] (setting [3]) it was > 10000 nM.
In the case of `Cc1cc(C)c(-n2cc3sc(N[C@@H]4CN(C)C[C@H]4F)nc3n2)c(O)c1` [Example 79, 2-(5-{[(3R,4R)-4-fluoro-1-methylpyrrolidin-3-yl]amino}-2H-pyrazolo[3,4-d][1,3]thiazol-2-yl)-3,5-dimethylphenol], the results for the IC50 in experiment [1] and in experiment [2] (setting [3]) were 1100 nM and > 30000 nM, respectively.
On the same counts, the results for `Cc1cc(C)c(-n2cc3sc(N[C@H]4CN(C)C[C@@H]4F)nc3n2)c(O)c1` [Example 80, 2-(5-{[(3S,4S)-4-fluoro-1-methylpyrrolidin-3-yl]amino}-2H-pyrazolo[3,4-d][1,3]thiazol-2-yl)-3,5-dimethylphenol] are 37 nM and > 30000 nM.
As for `Cc1cc(C)c(-n2cc3sc(NC4CCN(C)CC4)nc3n2)c(O)c1` [Example 81, 3,5-dimethyl-2-{5-[(1-methylpiperidin-4-yl)amino]-2H-pyrazolo[3,4-d][1,3]thiazol-2-yl}phenol], the half-inhibitory concentration (IC50) was 3100 nM in experiment [1] and > 30000 nM in experiment [2] (setting [3]).
For `Cc1cc(Cl)cc(O)c1-n1cc2c(nc(N[C@@H]3C[C@@H](F)CN(C)C3)n2C)n1` [Example 82, 5-chloro-2-[5-{[(3R,5R)-5-fluoro-1-methylpiperidin-3-yl]amino}-4-methylimidazo[4,5-c]pyrazol-2(4H)-yl]-3-methylphenol], the half-inhibitory concentration (IC50) in experiment [1] is 49 nM; in experiment [2] (setting [3]), > 30000 nM.
As to `CCC(O)CNc1nc2nn(-c3c(C)cc(C)cc3O)cc2s1` (stereo not shown) [Example 83, 2-{5-[(2-hydroxybutyl)amino]-2H-pyrazolo[3,4-d][1,3]thiazol-2-yl}-3,5-dimethylphenol], the values for the 50% inhibitory concentration (IC50) in experiment [1] and in experiment [2] (setting [3]) were 820 nM and > 30000 nM, respectively.
The like results for `Cc1cc(C)c(-n2cc3sc(NCC4(O)CC4)nc3n2)c(O)c1` [Example 84, 2-(5-{[(1-hydroxycyclopropyl)methyl]amino}-2H-pyrazolo[3,4-d][1,3]thiazol-2-yl)-3,5-dimethylphenol] were, in that order, 380 nM and > 30000 nM.
On the same counts, the results for `CC(=O)N1CCC(Nc2nc3nn(-c4c(C)cc(C)cc4O)cc3s2)C1` (stereo not shown) [Example 85, 1-(3-{[2-(2-hydroxy-4,6-dimethylphenyl)-2H-pyrazolo[3,4-d][1,3]thiazol-5-yl]amino}pyrrolidin-1-yl)ethan-1-one] are 350 nM and > 30000 nM.
Turning to `CNC(=O)N1CCC(Nc2nc3nn(-c4c(C)cc(C)cc4O)cc3s2)C1` (stereo not shown) [Example 86, 3-{[2-(2-hydroxy-4,6-dimethylphenyl)-2H-pyrazolo[3,4-d][1,3]thiazol-5-yl]amino}-N-methylpyrrolidine-1-carboxamide], the 50% inhibitory concentration (IC50) is 300 nM in experiment [1] and > 30000 nM in experiment [2] (setting [3]).
Take `CCc1cc(C)cc(O)c1-n1cc2sc(NC[C@@H](C)O)nc2n1` [Example 87, 3-ethyl-2-(5-{[(2R)-2-hydroxypropyl]amino}-2H-pyrazolo[3,4-d][1,3]thiazol-2-yl)-5-methylphenol]: the results for the IC50 in experiment [1] and in experiment [2] (setting [3]) were 96 nM and > 30000 nM, respectively.
For the compound `COCC(=O)N1CCC(Nc2nc3nn(-c4c(C)cc(C)cc4O)cc3s2)C1` (stereo not shown) [Example 89, 1-(3-{[2-(2-hydroxy-4,6-dimethylphenyl)-2H-pyrazolo[3,4-d][1,3]thiazol-5-yl]amino}pyrrolidin-1-yl)-2-methoxyethan-1-one], the values for the IC50 in experiment [1] and in experiment [2] (THP-1 macrophages) were 550 nM and > 30000 nM, respectively.
For `Cc1cc(C)c(-n2cc3sc(NC4CCN(C(=O)C(F)F)C4)nc3n2)c(O)c1` (stereo not shown) [Example 90, 2,2-difluoro-1-(3-{[2-(2-hydroxy-4,6-dimethylphenyl)-2H-pyrazolo[3,4-d][1,3]thiazol-5-yl]amino}pyrrolidin-1-yl)ethan-1-one], the concentration for half-maximal inhibition (IC50) was 540 nM in experiment [1] and > 10000 nM in experiment [2] (setting [3]).
Take `COC(=O)N1CCC(Nc2nc3nn(-c4c(C)cc(C)cc4O)cc3s2)C1` (stereo not shown) [Example 91, methyl 3-{[2-(2-hydroxy-4,6-dimethylphenyl)-2H-pyrazolo[3,4-d][1,3]thiazol-5-yl]amino}pyrrolidine-1-carboxylate]: the IC50 was 660 nM in experiment [1] and > 10000 nM in experiment [2] (setting [3]).
For `Cc1cc(C)c(-n2cc3sc(NC4CCN(C)C4)nc3n2)c(O)c1` (stereo not shown) [Example 92, 3,5-dimethyl-2-{5-[(1-methylpyrrolidin-3-yl)amino]-2H-pyrazolo[3,4-d][1,3]thiazol-2-yl}phenol], the half-maximal inhibitory concentration (IC50) is 270 nM in experiment [1] and > 30000 nM in experiment [2] (setting [3]).
Regarding `Cc1cc(O)c(-n2cc3sc(NC[C@@H](C)O)nc3n2)c(C(C)C)c1` [Example 93, 2-(5-{[(2R)-2-hydroxypropyl]amino}-2H-pyrazolo[3,4-d][1,3]thiazol-2-yl)5-methyl-3-(propan-2-yl)phenol], the results for the IC50 in experiment [1] and in experiment [2] (setting [3]) were 280 nM and > 30000 nM, respectively.

The values are drawn from patent US20260365671A1, “HETEROCYCLIC COMPOUND” (Takeda Pharmaceutical Company Limited, priority 2022, published 2026).
